Experimental findings from patent publication US8343990B2, “Substituted cyclopropyl compounds, compositions containing such compounds and methods of treatment” (Merck Sharp & Dohme Corp., priority 2008, dated 2013) are described below.

pEC50: −log10 of the molar value.

This experiment deals with T1, GPR119 receptor (UniProt Q8TDV5, S309L, species not given).
T1 sequence (Q8TDV5 1-335 S309L): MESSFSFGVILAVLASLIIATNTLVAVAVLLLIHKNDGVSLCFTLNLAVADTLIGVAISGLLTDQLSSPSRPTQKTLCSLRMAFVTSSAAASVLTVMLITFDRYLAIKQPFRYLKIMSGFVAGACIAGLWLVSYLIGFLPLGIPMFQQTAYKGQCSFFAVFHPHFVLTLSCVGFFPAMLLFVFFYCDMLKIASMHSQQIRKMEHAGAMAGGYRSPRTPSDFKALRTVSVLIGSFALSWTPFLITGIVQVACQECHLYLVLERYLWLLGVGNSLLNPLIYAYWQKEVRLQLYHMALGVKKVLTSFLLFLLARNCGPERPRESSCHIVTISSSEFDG
The experiment is described as follows: GPR119 signaling, cyclic AMP (cAMP) homogenous time resolved fluorescence (HTRF) assay. In kind it is cell-based. Particulars: CHO cells with Gα15 and murine GPR119, or HEK293 Flp-In cells with human GPR119 S309L; table does not say which; read-out: Activity: inflection points, denoted as EC50 values (agonist activation of GPR119, cAMP). Summed up: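 Agonist-induced cAMP measured in CHO cells expressing Gα15 plus murine GPR119, or HEK293 Flp-In cells expressing human S309L variant. Suspended cells exposed to compound titration 60 min at room temperature, lysed, HTRF read after 60 min; EC50 and efficacy versus internal agonist from 4-parameter fit.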
For orientation: Time-resolved FRET reads energy transfer from a long-lived donor to a nearby acceptor.

The pEC50 is the EC50 on a negative log10 scale, so that one unit is a factor of ten. In the case of `Clc1cnc(N2CCC(C3CC3CCOc3ccc(-n4ccnn4)cn3)CC2)nc1` (single isomer, unassigned) [Ex 55a, Chiral cis-5-chloro-2-{4-[2-(2-{[5-(1H-1,2,3-triazol-1-yl)pyridin-2-yl]oxy}ethyl)cyclopropyl]piperidin-1-yl}pyrimidine], the pEC50 was > 8.00.

Take `Cc1nnc(-c2ccc(OCCC3CC3C3CCN(c4ncc(Cl)cn4)CC3)cc2F)o1` (single isomer, unassigned) [Ex 83 F, cis-5-chloro-2-[4-(2-{2-[3-fluoro-4-(5-methyl-1,3,4-oxadiazol-2-yl)phenoxy]ethyl}cyclopropyl)piperidin-1-yl]pyrimidine]: the pEC50 was > 8.00.

Regarding `Cc1nnc(-c2ccc(OCCC3CC3C3CCN(c4ncc(Cl)cn4)CC3)cc2F)o1` (single isomer, unassigned) [Ex 83 S, cis-5-chloro-2-[4-(2-{2-[3-fluoro-4-(5-methyl-1,3,4-oxadiazol-2-yl)phenoxy]ethyl}cyclopropyl)piperidin-1-yl]pyrimidine], the pEC50 is > 8.00.

For the compound `Clc1cnc(N2CCC([C@@H]3C[C@@H]3CCOc3ccc(-n4ccnn4)cc3)CC2)nc1` (single isomer, unassigned) [Ex 83aS, cis-5-chloro-2-[4-(2-{2-[4-(1H-1,2,3-triazol-1-yl)phenoxy]ethyl}cyclopropyl)piperidin-1-yl]pyrimidine], the pEC50 is > 8.00.

In the case of `Fc1cnc(N2CCC(C3CC3CCOc3ccc(-n4ccnn4)cc3)CC2)nc1` (single isomer, unassigned) [Ex 83bF, cis-5-fluoro-2-[4-(2-{2-[4-(1H-1,2,3-triazol-1-yl)phenoxy]ethyl}cyclopropyl)piperidin-1-yl]pyrimidine], the pEC50 is 6.70 to 7.30.

For the compound `Fc1cnc(N2CCC(C3CC3CCOc3ccc(-n4ccnn4)cc3)CC2)nc1` (single isomer, unassigned) [Ex 83bS, cis-5-fluoro-2-[4-(2-{2-[4-(1H-1,2,3-triazol-1-yl)phenoxy]ethyl}cyclopropyl)piperidin-1-yl]pyrimidine], the pEC50 is > 8.00.

For `Clc1cnc(N2CCC(C3CC3CCOc3ccc(-n4cnnn4)cc3)CC2)nc1` (single isomer, unassigned) [Ex 83cF, cis-5-chloro-2-[4-(2-{2-[4-(1H-tetrazol-1-yl)phenoxy]ethyl}cyclopropyl)piperidin-1-yl]pyrimidine], the pEC50 is > 8.00.

With `Clc1cnc(N2CCC(C3CC3CCOc3ccc(-n4cnnn4)cc3)CC2)nc1` (single isomer, unassigned) [Ex 83cS, cis-5-chloro-2-[4-(2-{2-[4-(1H-tetrazol-1-yl)phenoxy]ethyl}cyclopropyl)piperidin-1-yl]pyrimidine], the pEC50 was > 8.00.

In the case of `Fc1cc(OCCC2CC2C2CCN(c3ncc(Cl)cn3)CC2)ccc1-n1cnnn1` (single isomer, unassigned) [Ex 83dF, cis-5-chloro-2-[4-(2-{2-[3-fluoro-4-(1H-tetrazol-1-yl)phenoxy]ethyl}cyclopropyl)piperidin-1-yl]pyrimidine], the pEC50 was 7.30 to 8.00.

Turning to `Fc1cc(OCCC2CC2C2CCN(c3ncc(Cl)cn3)CC2)ccc1-n1cnnn1` (single isomer, unassigned) [Ex 83dS, cis-5-chloro-2-[4-(2-{2-[3-fluoro-4-(1H-tetrazol-1-yl)phenoxy]ethyl}cyclopropyl)piperidin-1-yl]pyrimidine], the pEC50 is > 8.00.

For `Cc1nnc(-c2ccc(OCCC3CC3C3CCN(c4ncc(F)cn4)CC3)cc2F)o1` (single isomer, unassigned) [Ex 83eF, cis-5-fluoro-2-[4-(2-{2-[3-fluoro-4-(5-methyl-1,3,4-oxadiazol-2-yl)phenoxy]ethyl}cyclopropyl)piperidin-1-yl]pyrimidine], the pEC50 was 6.70 to 7.30.

As for `Cc1nnc(-c2ccc(OCCC3CC3C3CCN(c4ncc(F)cn4)CC3)cc2F)o1` (single isomer, unassigned) [Ex 83eS, cis-5-fluoro-2-[4-(2-{2-[3-fluoro-4-(5-methyl-1,3,4-oxadiazol-2-yl)phenoxy]ethyl}cyclopropyl)piperidin-1-yl]pyrimidine], the pEC50 was > 8.00.

`CS(=O)(=O)c1ccc(OCC[C@H]2C[C@@H]2C2CCN(c3ncc(Cl)cn3)CC2)cc1` [Ex 91, 5-chloro-2-[4-((1R,2R)-2-{2-[4-(methylsulfonyl)phenoxy]ethyl}cyclopropyl)piperidin-1-yl]pyrimidine]: the pEC50 is 7.30 to 8.00.

On to `O=C(NC1CC1)c1ccc(OCC[C@H]2C[C@@H]2C2CCN(c3ncc(Cl)cn3)CC2)cc1F` [Ex 93, 4-(2-{(1R,2R)-2-[1-(5-chloropyrimidin-2-yl)piperidin-4-yl]cyclopropyl}ethoxy)-N-cyclopropyl-2-fluorobenzamide], for which the pEC50 is > 8.00.

With `N#Cc1ccc(OCC[C@H]2C[C@@H]2C2CCN(c3ncc(Cl)cn3)CC2)cc1F` [Ex 94, 4-(2-{(1R,2R)-2-[1-(5-chloropyrimidin-2-yl)piperidin-4-yl]cyclopropyl}ethoxy)-2-fluorobenzonitrile], the pEC50 was 6.70 to 7.30.

With `Clc1cnc(N2CCC([C@H]3C[C@@H]3CCOc3ccc(-n4cncn4)cc3)CC2)nc1` [Ex 95, 5-chloro-2-[4-((1R,2R)-2-{2-[4-(1H-1,2,4-triazol-1-yl)phenoxy]ethyl}cyclopropyl)piperidin-1-yl]pyrimidine], the pEC50 was 7.30 to 8.00.

`Cc1nnc(-c2ccc(OCC[C@H]3C[C@@H]3C3CCN(c4ncc(Cl)cn4)CC3)cc2F)o1` [Ex 96, 5-chloro-2-[4-((1R,2R)-2-{2-[3-fluoro-4-(5-methyl-1,3,4-oxadiazol-2-yl)phenoxy]ethyl}cyclopropyl)piperidin-1-yl)pyrimidine]: the pEC50 is 7.30 to 8.00.

Take `Fc1cc(OCC[C@H]2C[C@@H]2C2CCN(c3ncc(Cl)cn3)CC2)ccc1-c1nnc(C2CC2)o1` [Ex 97, 5-chloro-2-[4-((1R,2R)-2-{2-[4-(5-cyclopropyl-1,3,4-oxadiazol-2-yl)-3-fluorophenoxy]ethyl}cyclopropyl)piperidin-1-yl]pyrimidine]: the pEC50 is 7.30 to 8.00.

For the compound `CS(=O)(=O)c1ccc(OC[C@H]2C[C@@H]2CC2CCN(c3ncc(Cl)cn3)CC2)cc1` [Ex 103, 5-chloro-2-{4-[((1S,2S)-2-{[4-(methylsulfonyl)phenoxy]methyl}cyclopropyl)methyl]piperidin-1-yl}pyrimidine], the pEC50 was 7.30 to 8.00.

Consider `N#Cc1ccc(OC[C@@H]2C[C@H]2CC2CCN(c3ncc(Cl)cn3)CC2)cc1F` [Ex 105, 4-[((1R,2R)-2-{[1-(5-chloropyrimidin-2-yl)piperidin-4-yl]methyl}cyclopropyl)methoxy]-2-fluorobenzonitrile], for which the pEC50 was < 6.70.

For `O=C(NC1CC1)c1ccc(OC[C@@H]2C[C@H]2CC2CCN(c3ncc(Cl)cn3)CC2)cc1F` [Ex 107, 4-[((1R,2R)-2-{[1-(5-chloropyrimidin-2-yl)piperidin-4-yl]methyl}cyclopropyl)methoxy]-N-cyclopropyl-2-fluorobenzamide], the pEC50 is 7.30 to 8.00.

With `O=C(NC1CC1)c1ccc(OC[C@H]2C[C@@H]2CC2CCN(c3ncc(Cl)cn3)CC2)cc1F` [Ex 108, 4-[((1S,2S)-2-{[1-(5-chloropyrimidin-2-yl)piperidin-4-yl]methyl}cyclopropyl)methoxy]-N-cyclopropyl-2-fluorobenzamide], the negative logarithm of the EC50 (pEC50) was 7.30 to 8.00.
